Results on two compounds are retold here after US20230226198A1, “Artemisinin Derivatives” (DA ZEN THERANOSTICS, INC., priority 2019, published 2023).

“Also recorded” adds a separate entry of the source. Where two headings read alike, the source gives them in different places.

In one test the test system is MDVR cells. In words: Monobromobimane (mBBr) staining, cellular GSH levels. Format: cell-based, human. The settings on record: 8 h, listed as DZ-003. As to the method:
Example 5G: Cancer cells (here MDVR) are treated with DZ1, DHA and/or a THAD (e.g. 6 uM each) for 8 h, followed by monobromobimane (mBBr) staining at 40 uM for 30 min at 37° C., and analyzed with flow cytometry to determine the cellular GSH levels. Flow cytometry analysis of mBBr fluorescence (green) is performed as described in example 5E above. Preliminary experiments indicate that the THAD as described herein may provide a similar or increased effect.

The test system of test [1] is mitochondria and lysosomes of C4-2B MDVR cells. In words: Confocal microscopy of Mitotracker/Lysotracker staining (subcellular localization). Format: cell-based, human. As to the method:
Subcellular localization (mitochondria, lysosomes) may be performed as follows: Uptake of DZ3a, THAD, controls or other dyes into mitochondria and lysosomes of cancer cells is determined by virtue of each compound constituting a dye or comprising a dye moiety. Cells are plated on live-cell imaging chambers (World Precision Instrument) overnight. Cells are exposed to the dyes at different concentrations, and dye uptake is evaluated by a Perkin-Elmer Ultraview ERS spinning disc confocal microscope mounted on a Zeiss Axiovert 200 m inverted microscope equipped with a 37° C. stage warmer, incubator, and constant CO2 perfusion. A 60× or 100× Zeiss oil objective (numerical aperture, 1.4) is used for live cell images, and a Z-stack is created using the attached piezoelectric z-stepper motor. The 633-nm laser line of an […] (set at 60% power) is used to excite the dye. Light emission at 650 nm is detected and found to correlate directly with the dye concentrations in the cells. For comparative studies, the exposure time and laser intensity are kept identical for accurate intensity measurements. Pixel intensity is quantified using Metamorph 6.1 (Universal Imaging), and the mean pixel intensity is generated as gray level using the Region Statistics feature on the software. […]

In test [2] the test system is MDVR cells (Enzalutamide-resistant C4-2B prostate cancer cells). In words: MTT cell viability / IC50 assay, MDVR. Type of test: cell-based. To be noted: Homo sapiens. How it is done:
Cell culture: In the following examples, unless otherwise specified, all cell lines are purchased from American Type Culture Collection and cultured in American Type Culture Collection (ATCC)-recommended media, with fetal bovine serum (FBS) to a final concentration of 10% and 1× penicillin/streptomycin at 37° C. with 5% CO2 in a cell culture incubator, unless otherwise specified. Unless otherwise specified, culture is 2D. Where culture is 3D, low attachment plates are used, with the same media. C4-2B (ATCC® CRL-3315™, human prostate cancer cells of epithelial morphology) parental cell line and drug-resistant cells derived therefrom) are cultured in RPMI-1640 with 10% FBS. MDVR cells (an Enzalutamide-resistant variety of C4-2B prostate cancer cells formed as described below) are cultured as indicated for the parental C4-2B cells. Caki-1 cells (human clear cell renal cell carcinoma cells) are cultured in ATCC-formulated McCoy's 5a Medium Modified (ATCC Catalog No. 30-2007) with 10% FBS. PC3 cells (ATCC® CRL-1435™, a human prostate cancer cell line of epithelial morphology initiated from a bone metastasis of a grade IV prostatic adenocarcinoma) are cultured in F-12K with 10% FBS. 22RV1 Prostate Cancer (PC) cells (ATCC® CRL-2505™, a human prostate carcinoma cell line of epithelial morphology) are cultured in RPMI-1640 with 10% FBS. DU145 cells (ATCC® HTB-81™, a human cell line derived from a prostate-originating brain metastase, not detectably hormone sensitive, not expressing prostate antigen; forms adenocarcinoma grade II in nude mice) are cultured in ATCC-formulated Eagle's Minimum Essential Medium (EMEM, Catalog No. 30-2003). H446 cells (ATCC® HTB-171™, a human small cell carcinoma SC lung cancer (SCLC) cell line derived from a metastatic site) are cultured in RPMI-1640 with 10% FBS. H358 cells (ATCC® CRL-5807™, a human non-small cell lung cancer (NSCLC) cell line that expresses protein and RNA of SP-A, the major lung surfactant associated protein, and produces tumors in athymic nude mice) are cultured in RPMI-1640 Medium with 10% FBS. BxPC3 cells (ATCC® CRL-1687™, an adenocarcinoma-derived pancreatic cancer cell line that expresses pancreas cancer specific antigen and carcinoembryonic antigen and forms tumors in nude mice) are cultured in RPMI-1640 with 10% FBS.
Resistant prostate cancer cell lines MDVR and AbiR: MDVR cells are Enzalutamide-resistant cells, AbiR are Abiraterone acetate resistant cells, formed from parental C4-2B prostate cancer cells as follows. A cell assay is performed exposing cells cultured as described above to various drugs indicated below for 72 hours. Parental C4-2B cells are C4-2B non-resistant cells not previously exposed to cancer drugs. Drug-resistant C4-2B cells are created by prolonged exposure to the relevant drug, i.e. Enzalutamide for MDVR, and Abiraterone acetate for AbiR cells, at initially sub-lethal and gradually increasing concentrations until resistance is achieved.
Example 1: A cell assay is performed exposing cells cultured as described above to various drugs indicated below for 24 hours unless otherwise indicated. Each of the cell lines is treated either with a THAD (e.g. DZ-DHA-ether, MI-148-bis-DHA), or for comparison, with the DHA mono-ester “DZ-DHA”; alternatively/additionally, DZ1 and/or unconjugated DHA may serve as comparants. For each cell line, the IC50 is determined for each drug in concentrations from 0 to 100 μM. […] In the controls (not shown in the figures), the cells are exposed to DMSO (vehicle) for a final concentration that equals the highest concentration of the drug tested, to a maximum concentration less than 0.1% v/v. 4 hours before culture end/SDS addition, 10 μL MTT (3-(4,5-Dimethyl-2-thiazolyl)-2,5-diphenyl-2H-tetrazolium bromide, Sigma-Aldrich) is added to wells containing the cells. At the end of culture, 100 μl 10% SDS is added and then the plate containing the cells is placed in a 37° C. cell culture incubator for 8 hours. […]

One may read the IC50 as the concentration at which inhibition is half-maximal.

As for `C[C@@H]1CC[C@H]2[C@@H](C)C(OC(=O)CCCCCN3/C(=C/C=C4\CCCC(/C=C/C5=[N+](CCCCS(=O)(=O)[O-])c6ccccc6C5(C)C)=C4Cl)C(C)(C)c4ccccc43)O[C@@H]3OC4(C)CC[C@@H]1[C@]32OO4` (stereo in doubt) [DZ3a], in the test with MDVR cells, the “cellular GSH levels (mBBr fluorescence)” value was “decreases cellular antioxidant GSH levels; also recorded: Decreased cellular GSH levels”. In addition, in test [1], the “co-localization with mitochondria and lysosomes” value is “co-localizes with mitochondria and lysosomes; also recorded: exclusive targeting to mitochondria and lysosomes”. For the same compound, the 50% inhibitory concentration (IC50) in test [2] (ENZ-resistant C4-2B cells (MDVR), unit inferred, read-out: IC50 (FIG. 2B description)) was 3.8 µM; in test [2] (MDVR, 24 hours, relative IC50, read-out: IC50), 3.8 to 5.9 µM; in test [2] (MDVR, 48 h, read-out: IC50), 5.9 µM.

On to `C[C@H]1[C@@H](O)O[C@@H]2O[C@@]3(C)CC[C@H]4[C@H](C)CC[C@@H]1[C@@]24OO3` [DHA, dihydroartemisinin], for which, in test [2] (MDVR, 48 h, read-out: IC50), the IC50 came out at 390 µM.
